Patent US20260034079A1, “PHARMACEUTICAL COMPOSITION CONTAINING HYDROXYUREA FOR USE IN THE TREATMENT OF SEVERE CHRONIC ANEMIA” (THERAVIA, priority 2019, published 2026)

Test system: sickle cell patients with severe chronic anaemia
Experiment: Clinical trial: hematological parameters during treatment with Siklos in HU-naive sickle cell patients with severe chronic anaemia
Assay type: in vivo, human
Description: This study was conducted with a pharmaceutical composition identical to that of Siklos.
The dose of hydroxycarbamide is comprised from 5 to 30 mg/kg/day.
The results of the evaluation of the hematological parameters of the patients are recorded in the table below.

[1] = 12 months after the start of the treatment, p<0.001

In the case of `NC(=O)NO` [hydroxycarbamide, hydroxyurea], the “Haemoglobin, value after initiation of the treatment” value (12 months after initiation of Siklos (between 10 and 14 months), 41 patients, base value 7.16 ± 1.06, 5 to 30 mg/kg/day) is reported as 7.89 ± 1.11 g/dL, the “Variation of the haemoglobin, change with respect to the base value” (12 months after initiation of Siklos (between 10 and 14 months), 41 patients, p 0.001) is reported as 0.73 ± 1.30 g/dL and the “Mean blood volume, change” value [1] is reported as “+10.82±11.42”. The “Number of reticulocytes, change” value [1] was −91.5±115.6, the “Absolute number of neutrophil” value (after the start of the treatment, indicating adequate compliance) was “decreased” and the “Evolution of the fetal haemoglobin, change with respect to the base value” (at least 6 months after initiation of Siklos (between 5 and 14 months), 23 patients, p <0.001) was 6.37±6.38%. The “Variation of the haemoglobin, change with respect to the base value” (at least 6 months after initiation of Siklos (between 5 and 14 months), 55 patients, p <0.001) was 0.65 ± 1.24 g/dL.
